From ChEMBL document CHEMBL5291721, “A preclinical secondary pharmacology resource illuminates target-adverse drug reaction associations of marketed drugs” (Nat Commun, 2023) come the findings set out here.

Among the targets are Melanocortin receptor 4 (Homo sapiens, UniProt P32245); Mu-type opioid receptor (Homo sapiens, UniProt P35372); D(3) dopamine receptor (Homo sapiens, UniProt P35462).
Test [1] has as its target T1, Histamine H2 receptor (Homo sapiens, UniProt P25021). The class given is functional, cell-based.
For test [2], the target named is T2, Alpha-1A adrenergic receptor (Homo sapiens, UniProt P35348).
T2 sequence (P35348 whole entry): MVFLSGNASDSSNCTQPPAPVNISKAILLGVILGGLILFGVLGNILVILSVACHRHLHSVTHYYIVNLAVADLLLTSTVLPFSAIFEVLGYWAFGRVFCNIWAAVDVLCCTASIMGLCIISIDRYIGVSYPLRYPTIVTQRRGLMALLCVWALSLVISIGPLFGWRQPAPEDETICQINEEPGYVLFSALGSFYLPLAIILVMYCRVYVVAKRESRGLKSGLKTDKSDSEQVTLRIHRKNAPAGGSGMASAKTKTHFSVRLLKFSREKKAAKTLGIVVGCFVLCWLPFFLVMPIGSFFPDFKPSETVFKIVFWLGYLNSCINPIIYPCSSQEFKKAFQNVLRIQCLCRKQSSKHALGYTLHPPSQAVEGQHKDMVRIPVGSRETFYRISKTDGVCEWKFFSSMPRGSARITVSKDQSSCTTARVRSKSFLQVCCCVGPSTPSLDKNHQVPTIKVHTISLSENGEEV

Test [3] deals with T1, Histamine H2 receptor.
Test [4] deals with Gamma-aminobutyric acid receptor subunit alpha-1 (Rattus norvegicus, UniProt P62813). The class given is functional.
In test [5] the target is T3, Cannabinoid receptor 1 (Homo sapiens, UniProt P21554).
In test [6] the target is Beta-2 adrenergic receptor (Homo sapiens, UniProt P07550). The test is classed as functional, cell-based.
Test [7] has as its target T4, Muscarinic acetylcholine receptor M2 (Homo sapiens, UniProt P08172).
T4 sequence (P08172 whole entry): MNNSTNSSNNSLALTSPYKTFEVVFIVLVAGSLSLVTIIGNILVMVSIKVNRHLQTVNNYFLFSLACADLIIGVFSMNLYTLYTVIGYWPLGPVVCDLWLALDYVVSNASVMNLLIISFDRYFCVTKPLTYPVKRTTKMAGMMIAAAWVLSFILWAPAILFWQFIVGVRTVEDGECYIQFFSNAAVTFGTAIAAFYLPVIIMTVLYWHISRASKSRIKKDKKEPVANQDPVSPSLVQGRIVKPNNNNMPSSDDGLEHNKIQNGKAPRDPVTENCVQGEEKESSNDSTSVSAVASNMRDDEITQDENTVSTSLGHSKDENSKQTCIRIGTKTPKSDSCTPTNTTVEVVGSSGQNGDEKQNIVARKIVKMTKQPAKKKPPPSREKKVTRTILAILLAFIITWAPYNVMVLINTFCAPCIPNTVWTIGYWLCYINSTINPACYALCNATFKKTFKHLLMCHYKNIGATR
The class given is functional, cell-based.

The target of test [8] is T3, Cannabinoid receptor 1. The class given is functional, cell-based.
In test [9] the target is Sodium-dependent serotonin transporter (Homo sapiens, UniProt P31645).
Test [10] concerns the target 5-hydroxytryptamine receptor 2A (Homo sapiens, UniProt P28223). The class given is functional, cell-based.
Also: assay procedure not described here.

Sequence of Gamma-aminobutyric acid receptor subunit alpha-1 (P62813 whole entry): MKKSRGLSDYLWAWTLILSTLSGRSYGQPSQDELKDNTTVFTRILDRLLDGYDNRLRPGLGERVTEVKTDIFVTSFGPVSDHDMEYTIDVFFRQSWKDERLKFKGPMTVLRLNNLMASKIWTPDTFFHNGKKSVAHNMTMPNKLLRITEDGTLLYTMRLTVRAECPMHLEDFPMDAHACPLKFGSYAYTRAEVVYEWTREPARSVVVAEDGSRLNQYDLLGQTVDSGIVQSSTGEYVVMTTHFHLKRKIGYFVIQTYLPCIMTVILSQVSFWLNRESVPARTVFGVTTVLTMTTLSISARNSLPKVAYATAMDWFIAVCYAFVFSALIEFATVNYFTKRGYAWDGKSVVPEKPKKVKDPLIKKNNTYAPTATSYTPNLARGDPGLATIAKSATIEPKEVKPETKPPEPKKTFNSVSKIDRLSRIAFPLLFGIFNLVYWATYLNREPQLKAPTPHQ
Sequence of Sodium-dependent serotonin transporter (P31645 whole entry): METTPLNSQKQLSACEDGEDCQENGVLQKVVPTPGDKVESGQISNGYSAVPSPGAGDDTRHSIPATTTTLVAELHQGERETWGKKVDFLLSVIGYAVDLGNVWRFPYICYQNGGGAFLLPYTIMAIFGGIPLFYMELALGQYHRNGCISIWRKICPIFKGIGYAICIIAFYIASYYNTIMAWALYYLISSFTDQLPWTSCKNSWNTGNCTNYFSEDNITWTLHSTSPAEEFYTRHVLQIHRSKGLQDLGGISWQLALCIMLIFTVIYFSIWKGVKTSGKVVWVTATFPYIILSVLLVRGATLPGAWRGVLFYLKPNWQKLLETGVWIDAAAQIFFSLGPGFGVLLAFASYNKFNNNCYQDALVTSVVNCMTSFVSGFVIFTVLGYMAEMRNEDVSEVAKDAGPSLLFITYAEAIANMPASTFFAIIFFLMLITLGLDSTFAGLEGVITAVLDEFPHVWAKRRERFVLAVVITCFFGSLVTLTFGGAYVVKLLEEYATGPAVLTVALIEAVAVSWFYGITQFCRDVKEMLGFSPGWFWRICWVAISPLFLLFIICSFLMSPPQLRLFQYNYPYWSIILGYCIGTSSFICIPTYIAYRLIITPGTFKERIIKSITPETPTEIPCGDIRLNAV
Sequence of D(3) dopamine receptor (P35462 whole entry): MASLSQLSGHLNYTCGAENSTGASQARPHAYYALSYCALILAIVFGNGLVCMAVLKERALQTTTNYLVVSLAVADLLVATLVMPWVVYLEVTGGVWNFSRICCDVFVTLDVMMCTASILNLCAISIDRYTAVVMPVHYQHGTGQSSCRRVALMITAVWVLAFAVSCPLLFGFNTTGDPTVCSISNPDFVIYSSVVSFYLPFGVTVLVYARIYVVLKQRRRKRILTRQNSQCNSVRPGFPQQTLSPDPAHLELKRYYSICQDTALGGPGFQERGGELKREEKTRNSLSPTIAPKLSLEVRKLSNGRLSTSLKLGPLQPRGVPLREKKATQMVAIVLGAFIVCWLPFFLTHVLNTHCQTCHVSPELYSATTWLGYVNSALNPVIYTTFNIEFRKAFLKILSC
T1 sequence (P25021 whole entry): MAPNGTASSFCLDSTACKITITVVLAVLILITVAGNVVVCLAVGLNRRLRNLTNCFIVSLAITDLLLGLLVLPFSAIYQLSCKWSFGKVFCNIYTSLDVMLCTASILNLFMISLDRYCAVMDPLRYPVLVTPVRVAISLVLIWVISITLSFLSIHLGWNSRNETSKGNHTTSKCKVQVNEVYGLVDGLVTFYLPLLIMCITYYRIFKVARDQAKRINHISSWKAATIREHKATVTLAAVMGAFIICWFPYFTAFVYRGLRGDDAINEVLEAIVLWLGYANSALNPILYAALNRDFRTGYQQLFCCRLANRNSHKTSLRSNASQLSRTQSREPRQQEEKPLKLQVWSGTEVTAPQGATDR
Sequence of Beta-2 adrenergic receptor (P07550 whole entry): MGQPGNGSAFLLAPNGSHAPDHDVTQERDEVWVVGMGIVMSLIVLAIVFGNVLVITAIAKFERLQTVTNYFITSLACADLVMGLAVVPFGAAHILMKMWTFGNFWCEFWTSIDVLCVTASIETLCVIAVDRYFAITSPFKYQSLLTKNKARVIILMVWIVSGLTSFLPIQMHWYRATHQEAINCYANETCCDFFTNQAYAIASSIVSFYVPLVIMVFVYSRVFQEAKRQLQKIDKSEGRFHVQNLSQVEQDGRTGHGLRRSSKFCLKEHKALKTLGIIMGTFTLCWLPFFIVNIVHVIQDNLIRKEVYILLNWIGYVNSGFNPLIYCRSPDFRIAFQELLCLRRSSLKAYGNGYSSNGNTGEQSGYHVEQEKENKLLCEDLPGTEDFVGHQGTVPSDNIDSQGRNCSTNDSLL
Sequence of 5-hydroxytryptamine receptor 2A (P28223 whole entry): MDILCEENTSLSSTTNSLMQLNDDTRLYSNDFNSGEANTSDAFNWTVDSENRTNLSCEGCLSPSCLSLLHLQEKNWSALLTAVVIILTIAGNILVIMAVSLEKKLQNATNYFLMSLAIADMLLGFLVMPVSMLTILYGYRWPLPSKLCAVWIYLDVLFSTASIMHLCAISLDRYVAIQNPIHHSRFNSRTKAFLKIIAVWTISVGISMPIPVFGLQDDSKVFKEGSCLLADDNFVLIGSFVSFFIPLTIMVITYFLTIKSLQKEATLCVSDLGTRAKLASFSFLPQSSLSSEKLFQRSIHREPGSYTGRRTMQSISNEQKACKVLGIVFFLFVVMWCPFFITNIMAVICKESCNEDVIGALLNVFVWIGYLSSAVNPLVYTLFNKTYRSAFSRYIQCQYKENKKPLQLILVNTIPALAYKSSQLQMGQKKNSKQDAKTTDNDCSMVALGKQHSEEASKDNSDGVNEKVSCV
T3 sequence (P21554 whole entry): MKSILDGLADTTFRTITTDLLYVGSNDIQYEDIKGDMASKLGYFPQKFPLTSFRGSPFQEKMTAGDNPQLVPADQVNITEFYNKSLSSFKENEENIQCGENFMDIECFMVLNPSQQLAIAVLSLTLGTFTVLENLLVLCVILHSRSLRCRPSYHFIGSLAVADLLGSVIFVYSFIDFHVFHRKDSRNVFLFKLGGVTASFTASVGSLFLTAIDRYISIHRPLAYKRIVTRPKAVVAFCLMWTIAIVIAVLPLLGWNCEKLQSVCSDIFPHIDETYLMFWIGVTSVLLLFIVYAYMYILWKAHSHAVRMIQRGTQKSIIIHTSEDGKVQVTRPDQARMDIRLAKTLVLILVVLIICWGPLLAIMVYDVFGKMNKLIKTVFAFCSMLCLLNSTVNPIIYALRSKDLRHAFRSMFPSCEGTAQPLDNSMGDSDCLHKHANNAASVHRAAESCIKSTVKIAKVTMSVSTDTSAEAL
Sequence of Melanocortin receptor 4 (P32245 whole entry): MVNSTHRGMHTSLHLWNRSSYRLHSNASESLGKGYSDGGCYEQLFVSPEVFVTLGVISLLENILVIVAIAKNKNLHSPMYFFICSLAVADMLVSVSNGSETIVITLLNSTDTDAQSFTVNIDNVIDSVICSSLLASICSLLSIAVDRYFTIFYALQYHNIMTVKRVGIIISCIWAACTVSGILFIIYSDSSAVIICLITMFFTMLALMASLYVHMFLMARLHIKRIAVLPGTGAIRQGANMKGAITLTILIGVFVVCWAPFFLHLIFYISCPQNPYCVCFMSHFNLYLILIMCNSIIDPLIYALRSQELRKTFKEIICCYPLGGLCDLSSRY
Sequence of Mu-type opioid receptor (P35372 whole entry): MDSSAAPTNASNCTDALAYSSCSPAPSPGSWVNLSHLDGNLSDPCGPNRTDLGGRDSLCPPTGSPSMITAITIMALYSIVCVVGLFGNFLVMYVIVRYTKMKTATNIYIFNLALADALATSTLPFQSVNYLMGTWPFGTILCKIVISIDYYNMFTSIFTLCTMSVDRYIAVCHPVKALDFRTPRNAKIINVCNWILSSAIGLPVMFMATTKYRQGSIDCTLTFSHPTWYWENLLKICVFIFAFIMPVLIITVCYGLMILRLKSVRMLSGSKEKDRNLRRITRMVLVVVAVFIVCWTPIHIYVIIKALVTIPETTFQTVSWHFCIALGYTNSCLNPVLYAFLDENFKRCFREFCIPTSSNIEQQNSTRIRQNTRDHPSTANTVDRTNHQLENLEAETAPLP

For orientation: AC50 means the midpoint of the concentration-response curve, whichever way the signal moves. Read a low AC50 as activity at low concentration. For `NCCCC(O)(P(=O)(O)O)P(=O)(O)O` [ALENDRONIC ACID], the AC50 at Histamine H2 receptor [1] is over 10 µM; in test [2], over 10 µM; on Histamine H2 receptor [3] it was over 10 µM; on Melanocortin receptor 4, over 30 µM; in [4], over 10 µM; on Cannabinoid receptor 1 [5], over 10 µM.

For `CCCC(C)(COC(N)=O)COC(=O)NC(C)C` (stereo not drawn) [CARISOPRODOL], the AC50 was over 10 µM on Histamine H2 receptor [1]; over 30 µM at Mu-type opioid receptor; 13.3 µM in [2]; over 10 µM on Histamine H2 receptor [3]; over 30 µM in test [6]; over 30 µM on Melanocortin receptor 4. For the same compound, the AC50 in test [4] is over 10 µM; in test [7], over 10 µM; at Cannabinoid receptor 1 [8], over 30 µM; in test [9] it was over 10 µM; at D(3) dopamine receptor, over 10 µM; in test [10] it was over 30 µM. At Cannabinoid receptor 1 [5], this compound came in with an AC50 of over 10 µM.

For the compound `N[C@H](Cc1cc(I)c(Oc2cc(I)c(O)c(I)c2)c(I)c1)C(=O)O` [DEXTROTHYROXINE], the half-maximal activity concentration (AC50) at Histamine H2 receptor [1] is over 10 µM; on Mu-type opioid receptor, over 30 µM; in test [2], over 10 µM; on Histamine H2 receptor [3] it was over 10 µM; in [6] it was over 30 µM; on Melanocortin receptor 4, over 30 µM. In addition, the AC50 is over 10 µM in test [4]; over 10 µM in test [7]; over 30 µM on Cannabinoid receptor 1 [8]; over 30 µM in test [9]; over 10 µM on D(3) dopamine receptor; over 30 µM in [10]. Besides, the half-maximal activity concentration (AC50) at Cannabinoid receptor 1 [5] was over 10 µM.

For the compound `CC(=O)OCC(CCn1cnc2cnc(N)nc21)COC(C)=O` [FAMCICLOVIR], the AC50 at Histamine H2 receptor [1] is over 10 µM; on Mu-type opioid receptor, over 30 µM; in test [2], 11.6 µM; on Histamine H2 receptor [3], over 10 µM; in test [6] it was over 30 µM; at Melanocortin receptor 4, over 30 µM. The AC50 was over 10 µM in test [4]; over 10 µM in test [7]; over 30 µM at Cannabinoid receptor 1 [8]; over 10 µM at D(3) dopamine receptor; over 10 µM on Cannabinoid receptor 1 [5].

Regarding `COC1=C(OC)C(=O)C(CCCCCCCCCCO)=C(C)C1=O` [IDEBENONE], the AC50 was over 10 µM on Histamine H2 receptor [1]; over 10 µM at Mu-type opioid receptor; over 10 µM in test [2]; over 10 µM on Histamine H2 receptor [3]; over 30 µM in [6]; over 30 µM at Melanocortin receptor 4. The half-maximal activity concentration (AC50) was over 10 µM in test [4]; over 10 µM in test [7]; over 30 µM on Cannabinoid receptor 1 [8]; over 10 µM at D(3) dopamine receptor; over 10 µM at Cannabinoid receptor 1 [5].

Take `O=C1CN=C(c2ccccc2)c2cc(Cl)ccc2N1` [NORDAZEPAM]: the half-maximal activity concentration (AC50) at Histamine H2 receptor [1] is over 10 µM; on Mu-type opioid receptor, over 10 µM; in test [2], over 10 µM; on Histamine H2 receptor [3], over 10 µM; in test [6], over 30 µM; on Melanocortin receptor 4 it was over 30 µM. For the same compound, the AC50 in test [4] was 0.049 µM; in test [7], over 10 µM; at Cannabinoid receptor 1 [8], over 30 µM; in test [9] it was over 10 µM; on D(3) dopamine receptor, over 10 µM; on Cannabinoid receptor 1 [5], over 10 µM.

Regarding `O=C1Nc2ccc(Cl)cc2C(c2ccccc2)=NC1O` (stereo not drawn) [OXAZEPAM], the AC50 on Histamine H2 receptor [1] is over 10 µM; at Mu-type opioid receptor, over 10 µM; at Histamine H2 receptor [3] it was over 10 µM; in [6] it was over 30 µM; at Melanocortin receptor 4, over 30 µM; in [4] it was 0.03 µM. Moreover, the AC50 in test [7] was over 10 µM; at Cannabinoid receptor 1 [8] it was over 30 µM; in test [9] it was over 10 µM; at D(3) dopamine receptor it was over 10 µM; in test [10] it was over 30 µM; on Cannabinoid receptor 1 [5] it was over 10 µM.

Consider `[H]/N=C(/N)N[C@H]1[C@H](O)[C@@H](O)[C@H](O[C@@H]2O[C@@H](C)[C@](O)(C=O)[C@H]2O[C@@H]2O[C@@H](CO)[C@H](O)[C@@H](O)[C@@H]2NC)[C@@H](N/C(N)=N\[H])[C@@H]1O` [STREPTOMYCIN], for which the AC50 is over 30 µM at Histamine H2 receptor [1]; over 10 µM on Mu-type opioid receptor; over 10 µM in test [2]; over 10 µM on Histamine H2 receptor [3]; over 30 µM at Melanocortin receptor 4; over 30 µM in test [4]. Also, the half-maximal activity concentration (AC50) (in test [7]; on Cannabinoid receptor 1 [8]; at D(3) dopamine receptor; on Cannabinoid receptor 1 [5]) was over 30 µM throughout.
